Common to all, as to format: functional
One experiment relates to Penicillium chrysogenum. The experiment in a line: Antifungal activity against Penicillium chrysogenum MTCC 161 at 10 ug/ml after 48 hr by cup-plate method. The following applies: MTCC 161, 48 h, read-out: DIZ.
For the next experiment, the system named is Aspergillus niger. Kind of experiment: Antifungal activity against Aspergillus niger MTCC 2546 at 10 ug/ml after 48 hr by cup-plate method. The following applies: MTCC 2546, 48 h, read-out: DIZ.
The subject of a further experiment is Pseudomonas fluorescens. The experiment in a line: Antibacterial activity against Pseudomonas fluorescens MTCC 2421 at 10 ug/ml after 48 hr by cup-plate method. The following applies: MTCC 2421, 48 h, read-out: DIZ.
For the next experiment, the system named is Escherichia coli. The experiment in a line: Antibacterial activity against Escherichia coli MTCC 1573 at 10 ug/ml after 48 hr by cup-plate method. The following applies: MTCC 1573, 48 h, read-out: DIZ.
The next experiment has as its system Pseudomonas aeruginosa. The experiment in a line: Antibacterial activity against Pseudomonas aeruginosa MTCC 424 at 10 ug/ml after 48 hr by cup-plate method. The following applies: MTCC 424, 48 h, read-out: DIZ.
A further experiment concerns Micrococcus luteus. Kind of experiment: Antibacterial activity against Micrococcus luteus MTCC 1538 at 10 ug/ml after 48 hr by cup-plate method. The following applies: MTCC 1538, 48 h, read-out: DIZ.
The next experiment concerns Bacillus pumilus. Kind of experiment: Antibacterial activity against Bacillus pumilus MTCC 1456 at 10 ug/ml after 48 hr by cup-plate method. The following applies: MTCC 1456, 48 h, read-out: DIZ.
In a further experiment the test system is Staphylococcus aureus. The experiment in a line: Antibacterial activity against Staphylococcus aureus MTCC 1430 at 10 ug/ml after 48 hr by cup-plate method. Conditions: MTCC 1430, 48 h, read-out: DIZ.
The next experiment relates to Bacillus subtilis. The experiment in a line: Antibacterial activity against Bacillus subtilis MTCC 441 at 10 ug/ml after 48 hr by cup-plate method. The following applies: MTCC 441, 48 h, read-out: DIZ.

For the compound `OC(Cn1cncn1)(Cn1cncn1)c1ccc(F)cc1F` [FLUCONAZOLE], the zone of inhibition at 10 µg/mL with Penicillium chrysogenum was determined as 25 mm; in the experiment on Aspergillus niger, 24 mm.

On to `CCn1cc(C(=O)O)c(=O)c2cc(F)c(N3CCNCC3)cc21` [NORFLOXACIN], for which the zone of inhibition at 10 µg/mL with Pseudomonas fluorescens turned out to be 27 mm; with Escherichia coli, 27 mm; with Pseudomonas aeruginosa, 24 mm; with Micrococcus luteus, 32 mm; in the experiment on Bacillus pumilus, 27 mm; in the experiment with Staphylococcus aureus, 28 mm. For the same compound, in the experiment with Bacillus subtilis, the zone of inhibition at 10 µg/mL came to 25 mm.

The values above are taken from ChEMBL document CHEMBL3044945, “Synthesis of 1,3,5-trisubstituted pyrazoline nucleus containing compounds and screening for antimicrobial activity” (2012).
